This passage reports IC50, EC50 and CC50 results from US11952365B2, “Anti-viral compounds” (Aligos Therapeutics, Inc., priority 2020, dated 2024).

One data set concerns the target HRV3C (Human rhinovirus 14, UniProt P03303). The experiment in a line: HRV3C protease assay (duplex, SAMDI-MS). The format is biochemical, HRV. The conditions noted are these: 30 mins preincubation. The essentials: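 Duplex format with 3CLpro; 30 min enzyme–compound preincubation, 30 min reaction with two peptide substrates, ambient temp. Stop: 0.5% formic acid, neutralized with 1% NaHCO3 (finals). Readout SAMDI-MS, product AUC over internal standard AUC; four-parameter IC50.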

Data set [1] has as its system human beta-coronavirus OC43. In words: microbe, parasite or virus in culture. The data set is classed as cell-based. The conditions noted are these: Betacoronavirus 1, OC43, HeLa, 144 h, OC43 in HeLa cells, 6 days at 33° C., read-out: EC50.
The nature of data set [2]: Cytotoxicity plates without OC43 virus (cell-titer-glo). The format is cell-based, human. The conditions noted are these: human; HeLa cells without OC43 virus, class symbols. The essentials: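 HeLa cells seeded overnight, then treated with serially diluted compounds in 2% FBS EMEM, uninfected, in parallel with the OC43 antiviral plates. Incubated 6 days at 33 °C; viability read by CellTiter-Glo luminescence.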

The test system of data set [3] is SARS-CoV-2-GHB-03021/2020. In words: SARS-CoV-2 Infection Model in Huh7 Cells. The data set is classed as cell-based. The conditions noted are these: Severe acute respiratory syndrome coronavirus 2, Huh-7, 96 h, SARS-CoV-2, day 4 p.i., MTS.
Data set [4] has as its system SARS-CoV-2-GHB-03021/2020. In words: microbe, parasite or virus in culture. The format is cell-based. The conditions noted are these: Severe acute respiratory syndrome coronavirus 2, Vero C1008, 96 h; read-out: VeroE6 + CP (EC50).
A further data set deals with T1, human cathepsin L (Homo sapiens, UniProt P07711).
T1 construct: purchased R&D Systems
In words: cathepsin L assay. The format is biochemical. The conditions noted are these: 10 pM human cathepsin L, Z-FR-AMC 2 μM. The essentials: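 Human cathepsin L at 10 pM was preincubated 30 min with compound, then reaction started with Z-FR-AMC (2 μM final). Fluorescence (355/460 nm) read every 2 min for 30 min; IC50 from four-parameter curve fit.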

Data set [5] can be described thus: in vitro. The conditions noted are these: human.
The nature of data set [6]: in vitro. The conditions noted are these: African green monkey, VeroE6 + CP (CC50), Vero E6-eGFP cells with CP-100356, absence of virus, MTS; numeric bounds.
The next data set addresses 3CLpro (Severe acute respiratory syndrome coronavirus 2, UniProt P0DTD1). In words: SARS-CoV-2 3CLpro protease assay (duplex, SAMDI-MS). Further details: For the duplex assay, 3CLpro and HRV3C was added. The conditions noted are these: 3CLpro, 30 mins preincubation, class symbols; read-out: SARS-Cov-2 IC50. The format is biochemical.
[7] abbreviates: HRV3C, bound, read-out: HRV IC50.
Setting [8] is: HRV3C, class symbols, read-out: HRV IC50.

Usually IC50 stands for the concentration that inhibits the measured activity by half. The EC50 is the concentration needed to bring the measured effect to its halfway point.

Read-outs that look alike come from different tables or passages of the source. Where only a bound is given, the exact number is not on record here.

Turning to `N#C[C@H](C[C@@H]1CCNC1=O)NC(=O)[C@@H]1[C@H]2CCC[C@H]2CN1C(=O)c1cc2c(Cl)ccc(Cl)c2[nH]1` [Compound 167, (1S,3aR,6aS)—N-[(1S)-1-cyano-2-[(3S)-2-oxopyrrolidin-3-yl]ethyl]-2-(4,7-dichloro-1H-indole-2-carbonyl)-hexahydro-1H-cyclopenta[c]pyrrole-1-carboxamide], the half-maximal inhibitory concentration (IC50) is above 10 µM at HRV3C (setting [7]), at least 10 µM against human cathepsin L (class symbols) and 0.2 to 2 µM on 3CLpro. The EC50 in data set [1] (class symbols) was 0.1 to 1 µM; in [3] (class symbols) it was below 1 µM; in data set [4], below 1 µM. In data set [2], this molecule returned a CC50 at 6 days above 10 µM. Moreover, the CC50 in “in vitro [5]” was above 10 µM; in “in vitro [6]” it was above 50 µM.

Regarding `COc1nccc2[nH]c(C(=O)N3C[C@@H]4CCC[C@@H]4[C@H]3C(=O)N[C@@H](C[C@@H]3CCNC3=O)C(=O)CO)cc12` [Compound 93, (1S,3aR,6aS)—N-[(2S)-4-hydroxy-3-oxo-1-[(3S)-2-oxopyrrolidin-3-yl]butan-2-yl]-2-{4-methoxy-1H-pyrrolo[3,2-c]pyridine-2-carbonyl}-hexahydro-1H-cyclopenta[c]pyrrole-1-carboxamide], the IC50 at HRV3C (HRV IC50, HRV3C, bound) was above 10 µM; at human cathepsin L (class symbols), at least 10 µM; on 3CLpro, below 0.02 µM. Also, the EC50 in data set [1] (class symbols) lay in the range of 1 to 10 µM; in data set [3] (class symbols), 10 to 100 µM; in data set [4], 10 to 100 µM. Moreover, the CC50 at 6 days in [2] is above 10 µM. The CC50 in the data set “in vitro [5]” is above 100 µM; in the data set “in vitro [6]”, above 50 µM.

In the case of `COc1cccc2sc(C(=O)N3C[C@@H]4CCC[C@@H]4[C@H]3C(=O)N[C@@H](C[C@@H]3CCNC3=O)C(=O)CO)cc12` [Compound 72, (1S,3aR,6aS)—N-[(2S)-4-hydroxy-3-oxo-1-[(3S)-2-oxopyrrolidin-3-yl]butan-2-yl]-2-(4-methoxy-1-benzothiophene-2-carbonyl)-hexahydro-1H-cyclopenta[c]pyrrole-1-carboxamide], the IC50 is above 10 µM at HRV3C (setting [7]), above 3.3 µM on human cathepsin L (bound) and 0.2 to 2 µM on 3CLpro. Besides, the EC50 was 0.1 to 1 µM in data set [1] (class symbols), 1 to 10 µM in data set [3] (class symbols) and 1 to 10 µM in [4]. Besides, the CC50 at 6 days in data set [2] was above 10 µM. The CC50 in “in vitro [5]” and in “in vitro [6]” was above 100 µM throughout.

Take `O=C(NCc1ccccc1)C(=O)C(C[C@@H]1CCNC1=O)NC(=O)[C@@H]1C[C@@H](C2CC2)CN1C(=O)c1cc2ccccc2[nH]1` (stereo partly drawn) [Compound 40, N-benzyl-3-{[(2S,4S)-4-cyclopropyl-1-(1H-indole-2-carbonyl)pyrrolidin-2-yl]formamido}-2-oxo-4-[(3S)-2-oxopyrrolidin-3-yl]butanamide]: the IC50 on HRV3C (setting [8]) lay within 0.2 to 2 µM; on human cathepsin L (class symbols), 0.1 to 1 µM; at 3CLpro it was 0.2 to 2 µM. The EC50 in data set [1] (class symbols) lay in the range of 0.1 to 1 µM; in data set [3] (class symbols), 1 to 10 µM; in [4] it was 1 to 10 µM. Moreover, the CC50 at 6 days in data set [2] was above 10 µM. Also, the values for the CC50 in “in vitro [5]” and in “in vitro [6]” were above 10 µM and above 100 µM, respectively.

With `COc1cccc2[nH]c(C(=O)N3C[C@@H]4CCC[C@@H]4[C@H]3C(=O)N[C@@H](C[C@@H]3CCNC3=O)C(=O)C(=O)NC3CCOCC3)cc12` [Compound 104], the IC50 at HRV3C (setting [8]) is 0.2 to 2 µM; against human cathepsin L (class symbols) it was at least 10 µM; at 3CLpro, 0.2 to 2 µM. For the same molecule, the EC50 in [1] (bound) was above 10 µM; in data set [3] (class symbols) it was 10 to 100 µM; in [4], 10 to 100 µM. This molecule also had a CC50 at 6 days in [2] above 10 µM. The CC50 in “in vitro [5]” and in “in vitro [6]” was above 100 µM each time.

With `COc1ccc2[nH]c(C(=O)N3CCC4(CC4)C[C@H]3C(=O)N[C@@H](C[C@@H]3CCNC3=O)C(=O)C(=O)NC3CC3)cc2c1` [Compound 171], the IC50 against HRV3C (HRV IC50, HRV3C, class symbols) is 2 to 20 µM; against human cathepsin L (class symbols) it was at least 10 µM; on 3CLpro, 0.02 to 0.2 µM. For the same molecule, the EC50 in data set [1] (class symbols), in data set [3] (class symbols) and in data set [4] was 1 to 10 µM in each case. Besides, in [2], the CC50 at 6 days was above 10 µM. Besides, the CC50 was above 10 µM in the data set “in vitro [5]” and above 50 µM in “in vitro [6]”.

With `O=C(NCc1ccccc1)C(=O)[C@H](C[C@@H]1CCNC1=O)NC(=O)[C@@H]1[C@H]2CCC[C@H]2CN1C(=O)c1nc2ccccc2[nH]1` [Compound 35], the results for the IC50 at HRV3C (setting [8]), on human cathepsin L (class symbols) and on 3CLpro were 2 to 20 µM, at least 10 µM and 0.02 to 0.2 µM, respectively. For the same molecule, the EC50 in data set [1] (class symbols) was 1 to 10 µM; in [3] (class symbols) it was 10 to 100 µM; in data set [4] it was 10 to 100 µM. Further, the CC50 at 6 days in [2] was above 10 µM. Moreover, the CC50 in the data set “in vitro [5]” and in the data set “in vitro [6]” was above 100 µM in each case.

For the molecule `O=C(NC1CC1)C(=O)[C@H](C[C@@H]1CCNC1=O)NC(=O)[C@@H]1CC2(CCN1C(=O)c1cc3c(Cl)cc(Cl)cc3[nH]1)CC2` [Compound 141], the IC50 at HRV3C (setting [8]) was 2 to 20 µM; against human cathepsin L (class symbols), 0.1 to 1 µM; on 3CLpro, 0.02 to 0.2 µM. Besides, the EC50 in [1] (class symbols) is 0.1 to 1 µM; in data set [3] (numeric bounds), above 50 µM; in [4], above 50 µM. In addition, in [2], the CC50 at 6 days was above 10 µM. The CC50 was above 10 µM in “in vitro [5]” and above 50 µM in the data set “in vitro [6]”.

In the case of `Cn1c(C(=O)N2CCC3(CC3)C[C@H]2C(=O)N[C@@H](C[C@@H]2CCNC2=O)C(=O)C(=O)NC2CC2)cc2ccccc21` [Compound 172], the values for the IC50 on HRV3C (setting [8]), against human cathepsin L (class symbols) and at 3CLpro were 2 to 20 µM, 1 to 10 µM and below 0.02 µM, respectively. Besides, the figures for the EC50 in [1] (class symbols), in data set [3] (class symbols) and in data set [4] were 1 to 10 µM, below 1 µM and below 1 µM, respectively. The same molecule returned a CC50 at 6 days in data set [2] above 10 µM. The CC50 was above 10 µM in “in vitro [5]” and above 50 µM in “in vitro [6]”.

For `Cc1cccc2[nH]c(C(=O)N3CCC4(CC4)C[C@H]3C(=O)N[C@@H](C[C@@H]3CCNC3=O)C(=O)C(=O)NC3CC3)cc12` [Compound 169], the IC50 on HRV3C (setting [8]) lay in the range of 0.2 to 2 µM; on human cathepsin L (class symbols), 1 to 10 µM; on 3CLpro, 0.02 to 0.2 µM. Besides, the EC50 in data set [1] (class symbols), in data set [3] (class symbols) and in data set [4] was 1 to 10 µM each time. Moreover, in data set [2], the CC50 at 6 days was above 10 µM. In addition, the CC50 in “in vitro [5]” was above 10 µM; in the data set “in vitro [6]” it was above 50 µM.

As to `O=C[C@H](C[C@@H]1CCCNC1=O)NC(=O)[C@@H]1[C@H]2CCC[C@H]2CN1C(=O)c1cc2ccccc2[nH]1` [Compound 15, (1S,3aR,6aS)-2-(1H-indole-2-carbonyl)-N—((S)-1-oxo-3-((S)-2-oxopiperidin-3-yl)propan-2-yl)octahydrocyclopenta[c]pyrrole-1-carboxamide], the IC50 on HRV3C (setting [8]) is 0.02 to 0.2 µM; against human cathepsin L (class symbols) it was 1 to 10 µM; on 3CLpro it was below 0.02 µM. For the same molecule, the results for the EC50 in [1] (class symbols), in [3] (class symbols) and in [4] were 0.1 to 1 µM, 1 to 10 µM and 1 to 10 µM, respectively. The CC50 at 6 days in data set [2] is above 10 µM. For the same molecule, the CC50 in “in vitro [5]” and in “in vitro [6]” was above 100 µM in each case.

Turning to `O=C1NCC[C@H]1C[C@H](NC(=O)[C@@H]1[C@H]2CCC[C@H]2CN1C(=O)c1cc2c([nH]1)CCCC2)C(=O)CO` [Compound 83, (1S,3aR,6aS)—N-[(2S)-4-hydroxy-3-oxo-1-[(3S)-2-oxopyrrolidin-3-yl]butan-2-yl]-2-(4,5,6,7-tetrahydro-1H-indole-2-carbonyl)-hexahydro-1H-cyclopenta[c]pyrrole-1-carboxamide], the IC50 at HRV3C (setting [7]) was above 10 µM; against human cathepsin L (class symbols) it was at least 10 µM; on 3CLpro, 0.02 to 0.2 µM. The EC50 is 0.1 to 1 µM in data set [1] (class symbols), below 1 µM in [3] (class symbols) and below 1 µM in [4]. The same molecule displayed a CC50 at 6 days in data set [2] above 10 µM. The CC50 in “in vitro [5]” and in “in vitro [6]” was above 50 µM in each case.
